Source: paper PMC7463460, “Structure and Antiparasitic Activity Relationship of Alkylphosphocholine Analogues against Leishmania donovani” (Microorganisms, 2020)
Values joined by “and” are separate entries in the source; they are usually repeats but may differ in a detail not shown here. Identical values can stand only once. Like-named read-outs stand apart in the source and are kept apart here.

Experiments:
visceral leishmaniasis = details: VL, 12 months post-treatment; cited from earlier work
[1] = Cytotoxicity against uninfected macrophages (alamar blue); format: cell-based, BALB/c mice; details: BALB/c, mouse, read-out: Macrophage mean IC50 (CC50) (converted)
Method: (§1) The effect of drug treatment on parasite survival was determined by calculating the mean suppression in the light emitted from the drug-treated experimental sample compared to the mean control value and used to calculate the IC50 using Grafit® software (version 5.0, Erithacus Software, East Grinstead, West Sussex, UK). The effect of drug alone on the viability of uninfected macrophages was determined using the same experimental protocol above, but cell viability was determined using an alamar blue colorimetric assay. At the end of the incubation period, cells’ 10 µL resazurin solution (0.02% w/v) was added to control and drug treated cells and the absorbance of samples was read at 575 and 595 nm. The effect of drug treatment on cell survival, which correlates with the magnitude of dye reduction, was expressed as percentage viability (or alamar blue reduction) and determined using the formula provided in the manufacturer’s protocol % alamar blue reduction=(εoxλ)(Aλ1)−(εoxλ1)(Aλ2)/(εredλ1)(A^′λ2)−(εredλ2)(A^′λ1)x100
(§2) In the formula, ελ1 and ελ2 are constants representing the molar extinction coefficient of alamar blue at 575 and 595 nm, respectively, in the oxidized (εox) and reduced (εred) forms. Aλ1, Aλ2 and A’λ1, A’λ2 represent absorbance of test and negative control wells at 575 and 595 nm, respectively. The values of % alamar blue reduction (or % viability) were corrected for background values of negative controls containing medium without cells. Percent viability values were used to calculate the IC50 using Grafit® software (version 5.0).

[2] = test system: L. donovani LV82 promastigotes; test: Luciferase-expressing promastigote assay, strain LV82; format: cell-based, Leishmania donovani; details: for Promast: Amast Ratio: LV82; for IC50: Leishmania donovani, 72 h, LV82, 3 days, 25 °C
Method: The anti-leishmanial activity of APC against L. donovani luciferase-expressing promastigotes was determined by adding of the appropriate 100 µL parasite line (10^6 cells/mL) to the wells of a 96-well plate and adding 100 µL medium alone (controls) or 100 µL of APC compound (0.01 µg/mL–6.25 µg/mL, n = 3/treatment). The plate was incubated for 72 h at 25 °C. In combination assays, the additional compound/compounds, at a final concentration of 0.195 or 0.39 µg/mL, was added to the initial APC being tested.
(§3) Luciferin solution (1 µg/mL in 20 µL medium without FCS) was added to the appropriate wells of the 96-well plate at the end of the experiment and the amount of light emitted/well was measured using a luminometer (Biotek Synergy HT, relative light units) using a wavelength/bandwidth of 440/40 nm, or IVIS® imaging (Spectrum Living Image system®, total flux, photons/sec).
as §1

[3] = test system: L. donovani LV82 intracellular amastigotes; test: Intracellular amastigote assay in bone-marrow-derived macrophages, strain LV82; format: cell-based, Leishmania donovani; details: for Selectivity Index (SI50): macrophage CC50 / LV82 intracellular amastigote IC50
Method: In the macrophage studies, the method described in previous studies was used as follows. […] It is possible that intracellular macrophage parasites could have been at different developmental stages at 24 h post-infection. […] Therefore, we assumed that the effect of compounds on the amastigote stage rather than the promastigotes stage was determined in in vitro macrophage studies.
The plate was incubated for a further 24 h, the medium removed, and each well washed with PBS to eliminate non-internalized parasites, which were monitored microscopically. […] Wells with macrophage and with no drug or promastigotes added were used in control experiments.
as §3
as §1, with “At the end of the incubation period, cells’ 10 µL resazurin solution (0.02% w/v) was added to control and drug treated cells and the absorbance of samples was read at 575 and 595 nm.” left out

[4] = test system: bone-marrow-derived macrophages from BALB/c mice; test: Cytotoxicity against uninfected macrophages (alamar blue); format: cell-based; details: 3 days
Method: as §1, §2

[5] = uninfected bone-marrow-derived macrophages
[6] = Leishmania donovani, Macrophage, in Mus musculus, 72 h, LV82, intracellular in BALB/c macrophages, 3 days, 37 °C
[7] = LV82, intracellular in BALB/c macrophages, 3 days, 37 °C

## C[C@@H]1[C@H](O)[C@@H](C)/C=C/C=C/C=C/C=C/C=C/C=C/C=C/[C@H](O[C@@H]2O[C@H](C)[C@@H](O)[C@H](N)[C@@H]2O)C[C@@H]2O[C@](O)(C[C@@H](O)C[C@@H](O)[C@H](O)CC[C@@H](O)C[C@@H](O)CC(=O)O[C@H]1C)C[C@H](O)[C@H]2C(=O)O [AMB, amphotericin B]
Visceral leishmaniasis
  cure rate: 93.7%

## CC(C)CCC(CCC(C)C)OP(=O)([O-])OCC[N+](C)(C)C [APC11PC, 2,8-Dimethyl-5-Nonylphosphocholine]
[1]; [5]
  IC50 at 3 days: 61.9 µg/mL and 185 µM
[2]
  Promast: Amast Ratio: >33.60
  IC50: > 6.25 µg/mL and > 18.6 µM
[3]; [6]
  IC50: 0.19 µg/mL and 550 nM
[3]
  Selectivity Index (SI50): 335.56

## C=CCCCCCCCCCOP(=O)([O-])OCC[N+](C)(C)C [APC11UPC, 10-Undecylenyl-1-phosphocholine]
[1]; [5]
  IC50 at 3 days: 54 µg/mL and 161 µM
[2]
  Promast: Amast Ratio: 135.34
  IC50: 1.8 µg/mL and 5.37 µM
[3]; [6]
  IC50: 0.01 µg/mL and 40 nM
[3]
  Selectivity Index (SI50): 4025.00

## CCCCCCCCCCCCOP(=O)([O-])OCCCCCC[N+](C)(C)C [APC12P6C]
[1]; [5]
  IC50 at 3 days: 14.1 µg/mL and 34.6 µM
[2]
  Promast: Amast Ratio: 33.33
  IC50: 33.5 µg/mL and 82.2 µM
[3]; [6]
  IC50: 1.01 µg/mL and 2.47 µM
[3]
  Selectivity Index (SI50): 14.01

## CCCCCCCCCCCC[N+](C)(C)CCCCCCCCCCCC [DAB, didodecyldimethyl ammonium bromide]
[1]
  IC50 at 3 days: 82.8 µg/mL and 179 µM
[2]
  Promast: Amast Ratio: 0.79
  IC50: 0.04 µg/mL and 91 nM
[3]; [6]
  IC50: 0.06 µg/mL and 119 nM
[3]
  Selectivity Index (SI50): 1503.45

## CCCCCCCCCCCCOP(=O)(O)O [PO, mono –n-dodecyl phosphate]
[1]; [5]
  IC50 at 3 days: 100 µg/mL and 401 µM
[2]
  Promast: Amast Ratio: >3.12
  IC50: > 6.25 µg/mL and > 25.1 µM
[2]; LV82 promastigotes and amastigotes
  activity against L. donovani compared to controls: inactive
[3]; [6]
  IC50: > 2 µg/mL and > 8.02 µM
[3]
  Selectivity Index (SI50): >50.00

## dodecylamine [DA]
[4]
  Macrophage mean IC50 (CC50): 37.60 ± 0.01 µg/mL
[4]; read-out: Macrophage mean IC50 (CC50) (converted)
  IC50: 203 µM
[2]
  Promast: Amast Ratio: 0.18
[3]; [7]
  Amastigote mean IC50: 0.47 ± 0.00 µg/mL
  IC50: 2540 nM
[3]
  Selectivity Index (SI50): 79.88
